Assay results from ChEMBL document CHEMBL4689842, “EUbOPEN Chemogenomics Library wave 1” (2021).

Columns and labels:
Format in all cases: toxicity, cell-based
Fibroblast = test: Incucyte cell viability with human fibroblast; conditions: 10 µM, compound concentration 10 uM
U2OS = test: Incucyte cell viability with U2OS; conditions: human, 10 µM, compound concentration 10 uM
HEK-293T = test: Incucyte cell viability with HEK293T; conditions: human, 10 µM, compound concentration 10 uM
[1] = 0 h, replicate number 1, timepoint 0 hours
[2] = 6 h, replicate number 1, timepoint 6 hours
[3] = 12 h, replicate number 2, timepoint 12 hours
[4] = 18 h, replicate number 1, timepoint 18 hours
[5] = 24 h, replicate number 1, timepoint 24 hours
[6] = 6 h, replicate number 2, timepoint 6 hours
[7] = 12 h, replicate number 1, timepoint 12 hours
[8] = 0 h, replicate number 2, timepoint 0 hours
[9] = 18 h, replicate number 2, timepoint 18 hours
[10] = 24 h, replicate number 2, timepoint 24 hours
Also: filed as whole numbers so only -1 and 0 and 1 occur.

SMILES	Growth Rate (Fibroblast; [1])	Growth Rate (Fibroblast; [2])	Growth Rate (Fibroblast; [3])	Growth Rate (Fibroblast; [4])	Growth Rate (Fibroblast; [5])	Growth Rate (U2OS; [1])	Growth Rate (U2OS; [7])	Growth Rate (U2OS; [4])	Growth Rate (U2OS; [5])	Growth Rate (HEK-293T; [1])	Growth Rate (HEK-293T; [2])	Growth Rate (HEK-293T; [7])	Growth Rate (HEK-293T; [4])	Growth Rate (HEK-293T; [5])	Growth Rate (Fibroblast; [8])	Growth Rate (Fibroblast; [7])	Growth Rate (Fibroblast; [9])	Growth Rate (U2OS; [2])	Growth Rate (HEK-293T; [8])	Growth Rate (Fibroblast; [6])	other results
CC1CCN(CC[C@H]2CCCN2S(=O)(=O)c2cccc(O)c2)CC1.Cl	0	1	1	1	1	0	1	1	1	0	1	1	1	1							Growth Rate (U2OS; [6]): 1; Growth Rate (HEK-293T; [3]): 0
COc1cc(-c2cn([C@H]3CCc4ccccc4N(CC(F)(F)F)C3=O)nn2)ccc1-n1ccc(C)n1		0	1	1	0	0	0	0	0		0	0	0	0	0	0	0	0	1		Growth Rate (U2OS; [3]): 1
COc1cc(C(=O)NS(=O)(=O)c2ccccc2C)ccc1Cc1cn(C)c2ccc(NC(=O)OC3CCCC3)cc12 [ZAFIRLUKAST]	0	1		1	0	0	1	1	1	0	1	1	1	1		0	0			0	Growth Rate (U2OS; [6]): 1; Growth Rate (HEK-293T; [3]): 0; Growth Rate (HEK-293T; [9]): 0; Growth Rate (HEK-293T; [10]): 0
O=C(Cc1ccccc1)Nc1nc2ccc(Cl)cc2c2nc(-c3ccco3)nn12	0		1	0	0	0	1	1	1	1	0	0	0	0	1	0	1		0	0	Growth Rate (Fibroblast; [10]): 1; Growth Rate (U2OS; [6]): 0; Growth Rate (U2OS; [3]): 0; Growth Rate (U2OS; [9]): 0; Growth Rate (U2OS; [10]): 0; Growth Rate (HEK-293T; [6]): 1
COc1cc2c(cc1NS(=O)(=O)c1ccc(Br)cc1C)n(C)c(=O)n2C	0		0	1	1	0	1	1	1	1	0	0	0	0		1		1	0	0	Growth Rate (Fibroblast; [10]): 0
CCCOc1ccc([C@H]2[C@H](C(=O)O)[C@@H](c3ccc4c(c3)OCO4)CN2CC(=O)Nc2c(CC)cccc2CC)cc1 [A-192621]	0	1		1	1		0	0	0	0	0	0	0	0	1	1		0		0	Growth Rate (U2OS; [9]): 1; Growth Rate (U2OS; [10]): 1; Growth Rate (HEK-293T; [9]): 1
CCOC(=O)c1cc2cc(-c3cc(C(=O)NCc4ccc(C(=O)O)cc4)nn3C)ccc2[nH]1 [BI 4394]	1	0	0	1	1		1	0	1	0		1	0	0	0	1		1			Growth Rate (U2OS; [8]): 0; Growth Rate (U2OS; [9]): 1; Growth Rate (HEK-293T; [9]): 1
CN1CCc2c(c3ccccc3n2Cc2ccc(C(=O)NO)cc2)C1 [TUBASTATIN A]	1		0	1	1	0	1	1	1	0							0	1	1	0	
